Here are results for three molecules from patent publication US8106075B2, “Insecticides” (Syngenta Crop Protection, Inc., priority 2004, dated 2012).

For one assay, the system named is Spodoptera littoralis. As to the kind of experiment: B10a: Systemic Insecticide Test for Spodoptera littoralis (cotton leafworm). It is filed as in vivo. Particulars: systemic via maize seedlings, 1st instar larvae. The procedure: […] Seedlings are allowed to grow for six days. Subsequently leaves are cut and placed in a Petri dish (5 cm diameter), inoculated with twelve to fifteen 1st instar S. littoralis larvae and incubated for four days in a growth chamber (25° C., 50% r.h., 18:6 L:D photo period). Number of alive insects are counted and percentage of dead calculated. Tests were conducted with one replicate.

The test system of another assay is Heliothis virescens. As to the kind of experiment: B10b: Insecticide Test for Heliothis virescens (tobacco budworm). Conditions: for Percent larvae showing growth reduction (compared to control): eggs on artificial diet topically treated, one week; for mortality at 0.05 ppm / mortality at 0.2 ppm / mortality at 0.8 ppm / mortality at 3 ppm: Heliothis virescens, topical, 168 h, read-out: Percent larvae mortality. Type of assay: in vivo. Here is the method: 50-60 newly laid H. virescens eggs were placed on artificial diet in Petri dishes (5 cm diameter) and topically treated with 0.8 ml solution of compounds at the following rates: 3, 0.8, 0.2, 0.05. Petri dishes are maintained at 26±2° C., 50±10% r.h. in a dark room and assessment conducted one week after application (two replicates/treatment). Larvae mortality and effects on larvae growth were compared to the control.

For the next assay, the system named is Plutella xylostella. Nature of the assay: B10c: Insecticide Test for Plutella xylostella (diamond back moth). Type of assay: in vivo. Conditions: sprayed Chinese cabbage leaf disks, L3 larvae. The procedure: Chinese cabbage plants were sprayed with insecticide at 3, 0.8, 0.2 and 0.05 ppm. Five cm diameter leaf disks were cut and placed in a Petri dish containing 6 ml agar (0.8%). Five P. xylostella larvae L3 were introduced into Petri dishes and kept at 26±2° C., 50±10% r.h. in a dark room (two replicates per treatment). […]

A further assay has as its system Diabrotica balteata. Nature of the assay: Example B2: activity against Diabrotica balteata, sprayed maize seedlings. Conditions: in Zea mays, 144 h, read-out: percentage reduction in the population (% activity).

In the case of `Cc1cccc(C(=O)NCC2CC2)c1NC(=O)c1cc(C(F)(F)F)nn1-c1ncccc1Cl` [Compound P41], the “Death rate (%) after 4 days” value with Spodoptera littoralis (0.2 ppm) stood at 20%; in the assay with Spodoptera littoralis (0.8 ppm), 80%; with Spodoptera littoralis (3 ppm) it was 100%. The “Percent larvae showing growth reduction (compared to control)” value worked out at 0% in the assay on Heliothis virescens (0.05 ppm), 45% in the assay on Heliothis virescens (0.2 ppm), 100% in the assay on Heliothis virescens (0.8 ppm) and 100% in the assay on Heliothis virescens (3 ppm). Moreover, in the assay with Heliothis virescens, the mortality at 0.05 ppm came out at 0%. The mortality at 0.2 ppm in the assay with Heliothis virescens is 0%. Besides, the mortality at 0.8 ppm in the assay with Heliothis virescens amounted to 0%. The mortality at 3 ppm in the assay with Heliothis virescens was determined as 0%. Besides, the “Death rate (%)” value is given as 0% in the assay with Plutella xylostella (0.05 ppm), 0% in the assay on Plutella xylostella (0.2 ppm), 80% with Plutella xylostella (0.8 ppm) and 60% in the assay with Plutella xylostella (3 ppm).

On to `Cc1cccc(C(=O)NCC2CO2)c1NC(=O)c1cc(C(F)(F)F)nn1-c1ncccc1Cl` (stereo not shown) [Comp. 566, reference compound], for which the “Death rate (%) after 4 days” value in the assay with Spodoptera littoralis (0.2 ppm), with Spodoptera littoralis (0.8 ppm) and in the assay with Spodoptera littoralis (3 ppm) was 0% in each case. The “Percent larvae showing growth reduction (compared to control)” value in the assay with Heliothis virescens (0.05 ppm), in the assay with Heliothis virescens (0.2 ppm), with Heliothis virescens (0.8 ppm) and in the assay on Heliothis virescens (3 ppm) was 0% in each case. Also, in the assay on Heliothis virescens, the mortality at 0.05 ppm turned out to be 0%. Further, in the assay with Heliothis virescens, the mortality at 0.2 ppm came out at 0%. In addition, the mortality at 0.8 ppm in the assay with Heliothis virescens turned out to be 0%. The mortality at 3 ppm in the assay on Heliothis virescens amounted to 0%. In addition, the “Death rate (%)” value with Plutella xylostella (0.05 ppm) came out at 0%; in the assay on Plutella xylostella (0.2 ppm), 10%; with Plutella xylostella (0.8 ppm) it was 5%; in the assay on Plutella xylostella (3 ppm), 25%.

In the case of `Cc1cc(Cl)cc(C(=O)NCC2CCO2)c1NC(=O)c1cc(C(F)(F)F)nn1-c1ncccc1Cl` (stereo not shown) [Compound P25, N-(4-chloro-2-methyl-6-[([oxetan-2-ylmethyl]amino)carbonyl]phenyl)-1-(3-chloro-2-pyridinyl)-3-(trifluoromethyl)-1H-pyrazole-5-carboxamide], in the assay on Diabrotica balteata, the inhibition at 400 ppm is over 80%.

Broadly, the mortality is the share of the test organisms that died.
